Reference: ChEMBL document CHEMBL4483862, “Open-source discovery of chemical leads for next-generation chemoprotective antimalarials” (2018)

Test system: Plasmodium berghei
Experiment: Luciferase/luciferin-expressing antifolate-resistant parasites were used to infect a culture of HepG2 cells that were pre-incubated with compounds. Infected hepatocytes emit light due to the luciferase reaction. Assay results are presented as the percent inhibition of light emission compared to control. […]
Type: functional
Details: sporozoite; for IC90: read-out: LUCIFERASE INFECTION ASSAY - IC90
[1] = read-out: LUCIFERASE INFECTION ASSAY - IC50

Compound	IC90	IC50 [1]	further results
O=C(/C(=N/Nc1ccc(Cl)cc1Cl)C(=O)C(F)(F)F)c1cccs1	5.87 µM		IC50 (FFLUC_HILL_SLOPE 16.5, FFLUC_R_SQUARED 0.242, PBLUC_HILL_SLOPE 1.77, PBLUC_R_SQUARED 0.602, read-out: LUCIFERASE INFECTION ASSAY - IC50): 1.7 µM
CC(C)n1ncc2cc(C(=O)Nc3nnc(-c4ccccn4)[nH]3)cnc21	> 10 µM		IC50 (PBLUC_HILL_SLOPE 1.86, PBLUC_R_SQUARED 0.0303, read-out: LUCIFERASE INFECTION ASSAY - IC50): 6.07 µM
Cc1nn(C(C)(C)C)c(C)c1/C=N/OC(=O)Nc1ccc(Cl)cc1	0.27 µM	0.0825 µM	
Cc1cc(-c2cn3c(-c4ccc5ncccc5c4)cnc3cn2)cc(C)c1O	> 9.01 µM	8.6 µM	
C/C(=N\O)c1cnc(-c2ccccc2)s1	14.8 µM		IC50 (HEPG2TOX_HILL_SLOPE 1.93, HEPG2TOX_R_SQUARED 0.937, PBLUC_HILL_SLOPE 2.91, PBLUC_R_SQUARED 0.0759, read-out: LUCIFERASE INFECTION ASSAY - IC50): 6.95 µM
CC(=O)N1CCc2cc(NC(=O)Cn3c(COc4ccc5ccccc5c4)nc4ccccc43)ccc21	> 10 µM	> 10 µM	
Cc1c(C(=O)OC(C)C(=O)Nc2ccc(F)cc2Cl)sc2nc3n(c(=O)c12)CCC3 (centres undefined)	> 10 µM		IC50 (FFLUC_HILL_SLOPE 12.5, FFLUC_R_SQUARED 0.0754, PBLUC_HILL_SLOPE 2.35, PBLUC_R_SQUARED 0.872, read-out: LUCIFERASE INFECTION ASSAY - IC50): 5.4 µM
CCCCNC(=O)c1c(NC(=O)c2ccc(F)cc2)nc2ccccn12	3.43 µM		IC50 (FFLUC_HILL_SLOPE 20.6, FFLUC_R_SQUARED 0.0581, HEPG2TOX_HILL_SLOPE 2.28, HEPG2TOX_R_SQUARED 0.75, PBLUC_HILL_SLOPE 12.8, PBLUC_R_SQUARED 0.452, read-out: LUCIFERASE INFECTION ASSAY - IC50): 2.88 µM
COc1ccc(OC)c(C(=O)/C=C/c2cc(Br)cs2)c1	5.17 µM		IC50 (HEPG2TOX_HILL_SLOPE 14.7, HEPG2TOX_R_SQUARED 0.849, PBLUC_HILL_SLOPE 92.6, PBLUC_R_SQUARED 0.363, read-out: LUCIFERASE INFECTION ASSAY - IC50): 5.05 µM
O=C1C(=O)N(CN2CCc3sccc3C2c2ccccc2)c2ccc(F)cc21 (centres undefined)	2.51 µM		IC50 (HEPG2TOX_HILL_SLOPE 2.62, HEPG2TOX_R_SQUARED 0.103, PBLUC_HILL_SLOPE 2.21, PBLUC_R_SQUARED 0.632, read-out: LUCIFERASE INFECTION ASSAY - IC50): 0.929 µM
CN1c2ccccc2C(C)(C)C12C=Cc1c(c(Br)cc3oc4c(c13)CCCC4)O2 (centres undefined)	> 10 µM		IC50 (HEPG2TOX_HILL_SLOPE 0.555, HEPG2TOX_R_SQUARED 0.409, PBLUC_HILL_SLOPE 0.699, PBLUC_R_SQUARED 0.384, read-out: LUCIFERASE INFECTION ASSAY - IC50): 4.21 µM
O=S(=O)(c1ccccc1)c1nc(Nc2ccc(F)cc2F)sc1Cl	> 10 µM		IC50 (HEPG2TOX_HILL_SLOPE 0.283, HEPG2TOX_R_SQUARED 0.886, PBLUC_HILL_SLOPE 3.77, PBLUC_R_SQUARED 0.219, read-out: LUCIFERASE INFECTION ASSAY - IC50): 7.29 µM
O=C(/N=c1\sc(-c2ccccc2)c(-c2ccccc2)n1CCc1ccccc1)c1ccccc1	> 10 µM		IC50 (FFLUC_HILL_SLOPE 3.75, FFLUC_R_SQUARED 0.66, PBLUC_HILL_SLOPE 10.4, PBLUC_R_SQUARED 0.195, read-out: LUCIFERASE INFECTION ASSAY - IC50): 8.64 µM
CNC(=O)c1nn(CC2CCCCC2)c2c1CC(NC1CCN(Cc3ccccc3)CC1)CC2 (centres undefined)	> 7.12 µM		IC50 (PBLUC_HILL_SLOPE 1.91, PBLUC_R_SQUARED 0.276, read-out: LUCIFERASE INFECTION ASSAY - IC50): 6.52 µM
O=C(NNc1ncc(C(F)(F)F)cc1Cl)c1c(Cl)cccc1Cl	> 8.58 µM		IC50 (HEPG2TOX_HILL_SLOPE 3.04, HEPG2TOX_R_SQUARED 0.858, PBLUC_HILL_SLOPE 3.51, PBLUC_R_SQUARED 0.0313, read-out: LUCIFERASE INFECTION ASSAY - IC50): 6.25 µM
CC(C)CNc1cc(N2CCN(C)CC2)c(N)c2c1C(=O)c1ccccc1C2=O	> 8.41 µM	> 8.41 µM	
O=C(Cc1ccc(Cl)cc1)N1CCc2nc(NCc3cccc(Oc4ccccc4)c3)ncc2C1	> 6.8 µM		IC50 (PBLUC_HILL_SLOPE 4.18, PBLUC_R_SQUARED 0.529, read-out: LUCIFERASE INFECTION ASSAY - IC50): 4.95 µM
COc1ccc(CCC(=O)NCc2cc(=O)n(C)c(=O)n2C)cc1	> 9.96 µM	> 9.96 µM	
O=C(Nc1cccc(C(F)(F)F)c1)Nc1ccc2nc(-c3ccco3)nn2c1	> 10 µM		IC50 (FFLUC_HILL_SLOPE 40.8, FFLUC_R_SQUARED 0.195, PBLUC_HILL_SLOPE 31.8, PBLUC_R_SQUARED 0.106, read-out: LUCIFERASE INFECTION ASSAY - IC50): 9.83 µM
CC(=O)c1c(C)[nH]c(C(=O)OC(c2ccccc2)c2ccc(Cl)cc2)c1C (centres undefined)	> 10 µM	> 10 µM	
CC(=O)c1csc(NC(=O)c2cc(C(C)C)nc3c2c(C)nn3C(C)(C)C)n1	> 10 µM	> 10 µM	

Compound	IC90	IC50 [1]	further results
Cc1ccccc1-c1noc(-c2cc(-c3cccs3)[nH]n2)n1	> 10 µM		IC50 (HEPG2TOX_HILL_SLOPE 8.85, HEPG2TOX_R_SQUARED 0.0358, read-out: LUCIFERASE INFECTION ASSAY - IC50): > 10 µM
C=CCN(C(=O)c1ccccc1Br)c1nc2ccccc2s1	> 10 µM	> 10 µM	
CC(C)N(CC(=O)Nc1ccc(Cl)cc1C(F)(F)F)C(=O)CNC(c1ccccc1)c1ccccc1	> 10 µM	> 10 µM	
COc1ccc(Cc2nccc3cc(OC)c(OC)cc23)cc1OC [PAPAVERINE]	> 8.78 µM	> 8.78 µM	
CN(Cc1nc(N)c2c3c(sc2n1)CCCC3)Cc1cccs1	> 10 µM		IC50 (PBLUC_HILL_SLOPE 2.01, PBLUC_R_SQUARED 0.418, read-out: LUCIFERASE INFECTION ASSAY - IC50): 4.1 µM
CCOc1cc2c(cc1/C=C/C(=O)c1ccc3[nH]c(=O)[nH]c3c1)OC(C)C2 (centres undefined)	> 10 µM	> 10 µM	
C/C=C/c1ccc(OCC(=O)NCc2ccc(S(N)(=O)=O)cc2)c(OC)c1	> 10 µM	> 10 µM	
C=CCn1c(SCC(=O)c2cc(C)n(-c3cc(F)ccc3F)c2C)nc2scc(-c3ccccc3)c2c1=O	8.56 µM		IC50 (PBLUC_HILL_SLOPE 5.29, PBLUC_R_SQUARED 0.561, read-out: LUCIFERASE INFECTION ASSAY - IC50): 5.65 µM
Cc1cc(C)n(-c2ccc(NC(=O)C3(c4ccccc4)CC3)cn2)n1	0.834 µM		IC50 (PBLUC_HILL_SLOPE 3.93, PBLUC_R_SQUARED 0.515, read-out: LUCIFERASE INFECTION ASSAY - IC50): 0.477 µM
COC(=O)c1c(C)[nH]c(-c2nc(Nc3cccc(OC)c3)sc2C)c1C	> 10 µM		IC50 (PBLUC_HILL_SLOPE 3.29, PBLUC_R_SQUARED 0.0567, read-out: LUCIFERASE INFECTION ASSAY - IC50): 7.6 µM
O=C(Nc1cccc(F)c1)Nc1ccc2nc(Cc3ccccc3)nn2c1	1.35 µM		IC50 (HEPG2TOX_HILL_SLOPE 1.95, HEPG2TOX_R_SQUARED 0.988, PBLUC_HILL_SLOPE 12.2, PBLUC_R_SQUARED 0.455, read-out: LUCIFERASE INFECTION ASSAY - IC50): 1.12 µM
CN(C)S(=O)(=O)c1cccc(C(=O)N(Cc2ccccc2)CC(O)COC(c2ccccc2)c2ccccc2)c1 (centres undefined)	> 10 µM	> 10 µM	
Cc1ccc(C)c(C(=O)C(C)Sc2nnc(-c3cccc(Br)c3)o2)c1 (centres undefined)	9.4 µM		IC50 (HEPG2TOX_HILL_SLOPE 2.02, HEPG2TOX_R_SQUARED 0.871, PBLUC_HILL_SLOPE 4.17, 0.287, PBLUC_R_SQUARED 0.527, 0.262, read-out: LUCIFERASE INFECTION ASSAY - IC50): 4.21 µM
CC(C)[C@H](Nc1ccc(C(F)(F)F)cc1Cl)C(=O)Nc1ccc(C#N)cc1	3.14 µM		IC50 (HEPG2TOX_HILL_SLOPE 3.39, HEPG2TOX_R_SQUARED 0.849, PBLUC_HILL_SLOPE 25.1, 22.4, PBLUC_R_SQUARED 0.626, 0.774, read-out: LUCIFERASE INFECTION ASSAY - IC50): 2.85 µM
COc1ccc(C)cc1CCNc1cc(Cl)nc(N)n1	> 10 µM		IC50 (HEPG2TOX_HILL_SLOPE 10.5, HEPG2TOX_R_SQUARED 0.0746, read-out: LUCIFERASE INFECTION ASSAY - IC50): > 10 µM
O=C(Nc1ccc(Oc2ccc(OC(F)(F)F)cc2)cc1)C1CC1	1.54 µM		IC50 (PBLUC_HILL_SLOPE 2.12, PBLUC_R_SQUARED 0.759, read-out: LUCIFERASE INFECTION ASSAY - IC50): 0.548 µM
Cc1ccc(N2C(=O)C=CC2=O)c(C)c1	6.84 µM		IC50 (HEPG2TOX_HILL_SLOPE 8.83, HEPG2TOX_R_SQUARED 0.656, PBLUC_HILL_SLOPE 7.12, PBLUC_R_SQUARED 0.655, read-out: LUCIFERASE INFECTION ASSAY - IC50): 5.02 µM
Cc1cccc(C(=O)Nc2ccc(N3CCc4sccc4C3)nc2)c1[N+](=O)[O-]	> 10 µM		IC50 (HEPG2TOX_HILL_SLOPE 2.87, HEPG2TOX_R_SQUARED 0.919, PBLUC_HILL_SLOPE 1.54, PBLUC_R_SQUARED 0.645, read-out: LUCIFERASE INFECTION ASSAY - IC50): 2.52 µM
COc1ccc(CCn2c(C)cc(C(=O)COC(=O)c3[nH]nc4ccccc34)c2C)cc1	> 10 µM	> 10 µM	
Cc1ccc(-n2c(SCC(=O)N3CCC(C)Sc4ccccc43)nnc2-c2ccccc2)cc1C (centres undefined)	> 10 µM		IC50 (FFLUC_HILL_SLOPE 12.3, FFLUC_R_SQUARED 0.54, HEPG2TOX_HILL_SLOPE 7.7, HEPG2TOX_R_SQUARED 0.421, PBLUC_HILL_SLOPE 3.98, PBLUC_R_SQUARED 0.233, read-out: LUCIFERASE INFECTION ASSAY - IC50): 6.2 µM
O=C1N(Cc2ccccc2)c2ccccc2C12Oc1ccc(Br)cc1-c1cc(-c3ccccc3)nn12 (centres undefined)	> 10 µM	9.29 µM	
